Data set [1] deals with doxorubicin-resistant A549 (A549/DOX) lung cancer cells. Put plainly: MTT antiproliferative assay, A549/DOX. The conditions noted are these: Homo sapiens. It counts as cell-based. Here is the method: (§1) The antiproliferative activity of 1,2,3-triazole tethered dihydroartemisinin-isatin hybrids 8a-c and 9a-k against A549, multidrug-resistant A549/DOX and A549/DDP lung cancer cell lines as well as cytotoxicity towards mouse embryonic fibroblast cells NIH/3T3 were assessed by 3-(4,5-dimethylthiazol-2-yl)-2,5-diphenyltetrazolium bromide (MTT) assay, and half maximal inhibitory concentration (IC50) values were listed in Table 2. A549, A549/DOX, and A549/DDP lung cancer cells (2 × 10^3) were plated in each well of a 96-well plate and were allowed to adhere and spread for 24 h. The 1,2,3-triazole tethered dihydroartemisinin-isatin hybrids 8a-c and 9a-k were added to a final concentration of 100 μM, and the cells were cultured for 24 h at 37°C. 3-(4,5-dimethyl-2-thiazolyl)-2,5-diphenyltetrazolium bromide (MTT) solution (10 µL) was added to each well, and the cultures were incubated for an additional 4 h. A further 100 µL of […] was added and incubation continued overnight. The absorbance at 540 nm was determined in each well with a 96-well plate reader. The growth of the treated cells was compared with that of untreated cells.

Data set [2] relates to A549, A549/DOX and A549/DDP lung cancer cell lines. Kind of data set: MTT antiproliferative assay, ranges pooled over lung cancer cell lines. It is filed as cell-based. Here is the method: as §1
The test system of another data set is A549 lung cancer cells. Put plainly: MTT antiproliferative assay, A549. It is filed as cell-based. The settings on record: Homo sapiens. Here is the method: as §1
The test system of data set [3] is mouse embryonic fibroblast cells NIH/3T3. Put plainly: MTT cytotoxicity assay, NIH/3T3. It is filed as cell-based. The conditions noted are these: for SI (selectivity index): IC50(NIH/3T3)/IC50(A549); for IC50: Mus musculus, NIH3T3, cytotoxicity, NIH/3T3 cells, MTT (called CC50 in method). Here is the method:
The antiproliferative activity of 1,2,3-triazole tethered dihydroartemisinin-isatin hybrids 8a-c and 9a-k against A549, multidrug-resistant A549/DOX and A549/DDP lung cancer cell lines as well as cytotoxicity towards mouse embryonic fibroblast cells NIH/3T3 were assessed by 3-(4,5-dimethylthiazol-2-yl)-2,5-diphenyltetrazolium bromide (MTT) assay, and half maximal inhibitory concentration (IC50) values were listed in Table 2.
The cytotoxicity (CC50) of the synthesized 1,2,3-triazole tethered dihydroartemisinin-isatin hybrids 8a-c and 9a-k were examined by the MTT assay in mouse embryonic fibroblast cells NIH/3T3. The compounds were dissolved in DMSO with concentrations from 1,024 to 1 μg/ml. The NIH/3T3 cells were maintained in culture medium at 37°C under 5% CO2 atmosphere. Cells were seeded in 96-well plates (1 × 10^4 cell per well) and allowed to recover for 24 h. After 72 h of exposure, cells were harvested and cell viability was assessed by MTT assay. The CC50 values were calculated by Bliss analy.
Background: Tetrazolium dyes change colour on reduction, which living cells bring about.

Data set [4] in a line: Stability in human liver microsomes. It is filed as in vitro ADME. Here is the method:
(§2) The metabolic stability of selected hybrids 8a,c and 9i was assessed in mouse and human microsomes, and the results were listed in Table 3.
For orientation: Liver microsomes are vesicles of endoplasmic reticulum, rich in cytochrome P450 enzymes.

Data set [5] relates to cisplatin-resistant A549 (A549/DDP) lung cancer cells. Put plainly: MTT antiproliferative assay, A549/DDP. It is filed as cell-based. The conditions noted are these: A549/DDP. Here is the method:
as §1

The nature of data set [6]: Stability in mouse liver microsomes. It is filed as in vitro ADME. Here is the method: as §2
Data set [7] in a line: Stability in mouse/human microsomes, pooled range. It is filed as in vitro ADME. The protocol: as §2
Data set [8] can be described thus: Pharmacokinetics in CD-1 mice. It is filed as in vivo. The conditions noted are these: mouse, plasma, 30 mg/kg, single intravenous administration; for clearance: read-out: Cl (clearance rate) (converted); for bioavailability: read-out: F (bioavailability); for Tmax: read-out: tmax (peak time) (converted). Here is the method:
The pharmacokinetic behavior of hybrids 8a,c was determined in CD-1 mice model by single intravenous administration with dose of 30 mg/kg.
CD-1 mice (20–25 g) were used in the pharmacokinetic study, and each treatment group had 3 mice which were dosed with hybrids 8a,c suspension at 30 mg/kg by single intravenous administration. Compounds were suspended in 0.5% CMC for iv, and blood was collected from the jugular vein of each mouse at the following time points: 0.25, 0.5, 1, 2, 4, 6, 8 and 24 h after intravenous administration. Total area under the concentration time curve (AUC), the elimination half-time (t1/2), the peak concentration (Cmax) and the time to reach peak concentration (Tmax) of samples were determined directly from the experimental data using WinNonlin V6.2.1.

Where [9] appears, read: Homo sapiens, range over A549 and A549/DOX, read-out: IC50, range over A549 and A549/DOX.
The mark [10] stands for this setting: range over the three lung cancer cell lines, read-out: IC50, range over A549, A549/DOX and A549/DDP.

Where two headings read alike, the source gives them in different places.

With `C[C@@H]1CC[C@H]2[C@@H](C)C(OCc3cn(CCN4C(=O)C(=NO)c5cc(F)ccc54)nn3)O[C@@H]3O[C@@]4(C)CC[C@@H]1[C@]32OO4` (stereo partly drawn) [9i, 5-fluoro-3-(hydroxyimino)-1-(2-(4-((((3R,5aS,6R,8aS,9R,12R,12aR)-3,6,9-trimethyldecahydro-12H-3,12-epoxy[1,2]dioxepino[4,3-i]isochromen-10-yl)oxy)methyl)-1H-1,2,3-triazol-1-yl)ethyl)indolin-2-one], the IC50 is 15.9 µM in data set [1]; 7.54 to 15.9 µM in [2] (setting [9]); 9.1 to 15.9 µM in [2] (setting [10]); 9.1 µM in the data set on A549 lung cancer cells; above 100 µM in [3]; 14.3 µM in [5]. For the same molecule, in data set [3], the “SI (selectivity index)” value was above 11.0. Further, the “Liver microsomes, Human” value in data set [4] was determined as 60%. Besides, the “Liver microsomes, Mouse” value in [6] came to 46%.

Usually AUC stands for the area under the concentration-time curve, a measure of exposure. Read a low AUC as less exposure. The Cmax is the maximum level reached in the sampled fluid or tissue. As usually defined, the half-life is how long it takes for the measured level to halve. Higher therefore signals slow decline. As usually defined, the clearance is the rate of elimination divided by the concentration. As a reminder, the bioavailability is the share of a dose that reaches the circulation, judged against a reference dose that is usually intravenous. As usually defined, the Tmax is the time at which the peak concentration occurs. For the molecule `C[C@@H]1CC[C@H]2[C@@H](C)C(OCc3cn(CCN4C(=O)C(=O)c5cc(F)ccc54)nn3)O[C@@H]3O[C@@]4(C)CC[C@@H]1[C@]32OO4` (stereo partly drawn) [8c, 5-fluoro-1-(2-(4-((((3R,5aS,6R,8aS,9R,12R,12aR)-3,6,9-trimethyldecahydro-12H-3,12-epoxy[1,2]dioxepino[4,3-i]isochromen-10-yl)oxy)methyl)-1H-1,2,3-triazol-1-yl)ethyl)indoline-2,3-dione], the “Liver microsomes, range over mouse and human” value in data set [7] is given as 68–83%. For the same molecule, the IC50 in data set [1] worked out at 9.89 µM. The IC50 in data set [2] (setting [9]) lay in the range of 7.54 to 15.9 µM. Besides, in data set [2] (setting [10]), the IC50 fell in the range of 7.54 to 12.1 µM. The molecule also registered an IC50 with A549 lung cancer cells of 7.54 µM. Moreover, in data set [8], the AUC came to 654 ng·h/mL, the highest level (Cmax) was 12.5 µM, the half-life was 4.2 h and the clearance was 52.7 mL/min/kg. Also, in data set [8], the bioavailability is 27.5% and the Tmax is 0.2 h. In data set [3], the “SI (selectivity index)” value is reported as above 13.2 and the IC50 was above 100 µM. The “Liver microsomes, Human” value in data set [4] is reported as 83%. For the same molecule, the IC50 in data set [5] was determined as 8.77 µM. Further, the “Liver microsomes, Mouse” value in [6] turned out to be 71%.

As to `C[C@@H]1CC[C@H]2[C@@H](C)C(OCc3cn(CCN4C(=O)C(=O)c5ccccc54)nn3)O[C@@H]3O[C@@]4(C)CC[C@@H]1[C@]32OO4` (stereo partly drawn) [8a, 1-(2-(4-((((3R,5aS,6R,8aS,9R,12R,12aR)-3,6,9-trimethyldecahydro-12H-3,12-epoxy[1,2]dioxepino[4,3-i]isochromen-10-yl)oxy)methyl)-1H-1,2,3-triazol-1-yl)ethyl)indoline-2,3-dione], the “Liver microsomes, range over mouse and human” value in data set [7] is reported as 68–83%. Moreover, in [1], the IC50 amounted to 12.1 µM. In addition, in [2] (setting [9]), the IC50 fell in the range of 7.54 to 15.9 µM. Besides, in data set [2] (setting [10]), the IC50 lay within 7.54 to 12.1 µM. In the data set on A549 lung cancer cells, this molecule showed an IC50 of 8.32 µM. In data set [8], the AUC stood at 883 ng·h/mL, the Cmax is 6.4 µM, the half-life is 3.7 h and the clearance was 38.5 mL/min/kg. For the same molecule, in data set [8], the bioavailability came out at 35.6% and the Tmax is 0.2 h. In data set [3], the “SI (selectivity index)” value is given as above 12.0 and the IC50 was above 100 µM. Besides, in data set [4], the “Liver microsomes, Human” value is on record as 68%. The molecule also registered an IC50 in [5] of 10.7 µM. Also, the “Liver microsomes, Mouse” value in data set [6] amounted to 77%.

These data come from article PMC8716824, “Design, Synthesis and Anti-Lung Cancer Evaluation of 1, 2, 3-Triazole Tethered Dihydroartemisinin-Isatin Hybrids” (Frontiers in Pharmacology, 2021).
